Read-outs that look alike come from different tables or passages of the source. Marks after values point to notes of the source that are not given here. Bounds are passed on as bounds.

The values below come from patent publication EP0539180A1, “Antiviral agents” (SANWA KAGAKU KENKYUSHO CO., LTD., priority 1991, dated 1993).

One data set has as its system GMK cells. Nature of the data set: Cytotoxicity, microscopically observed in GMK cell cultures. The class given is cell-based, green monkey.
Data set [1] concerns HSV-1 (Miyama strain). Nature of the data set: In vitro antiviral activity against HSV-1 (CPE inhibition, virus titer reduction) in GMK cells. The data set is classed as cell-based. Conditions: read-out: Antiviral Activity (ΔTCID50 (log10)). On the procedure:
The virus titer (TCID₅₀) was determined from CPE of virus infected culture. Antiviral effects of the test compounds were calculated from TCID₅₀ values of the test compounds treated and control cultures and represented by ΔTCID₅₀ (log₁₀).
In this regard, it is noted that prior to be added to the incubation systems, the compounds were dissolved in MEM or ethanol media at 10 mg/ml concentrations, and diluted with MEM media supplemented with 1% fetal bovine serum.

Data set [2] deals with HSV-1 (Miyama strain). The data set is described as follows: In vivo anti-HSV-1 activities in intraperitoneally infected mice (Testing 4). Further details: species or system BALB/c mice. Conditions: mice infected with 322 PFU HSV-1; for Survival Ratios after 21 days (%): control 0; for Mean Survival Days: control 6.9.
The test system of data set [3] is HSV-1 (Miyama strain). The data set is described as follows: In vivo anti-HSV-1 activities in intraperitoneally infected mice (Testing 5). Further details: species or system BALB/c mice. Conditions: mice infected with 322 PFU HSV-1; for Survival Ratios after 21 days (%): control 0; for Mean Survival Days: control 6.9, *: P<0.05 (U Test).
Setting [4] is: Human alphaherpesvirus 1, 10 μg/ml, HSV-1 (Miyama strain), GMK cells.
[5] abbreviates: Human alphaherpesvirus 1, 50 μg/ml, HSV-1 (Miyama strain), GMK cells.
Where [6] appears, read: 5 mg/kg intraperitoneally for five days.
The mark [7] stands for this setting: 20 mg/kg intraperitoneally for five days.
[8] abbreviates: 10 mg/kg intraperitoneally for five days.
Where [9] appears, read: 40 mg/kg intraperitoneally for five days.

On to `c1ccc(N2CCCCC2)cc1` [Compound 8, 1-phenylpiperidine], for which the cytotoxicities result with GMK cells (100 μg/ml) is given as “(+)”. Moreover, the log reduction at 100 µg/mL in the data set with HSV-1 (Miyama strain) [1] (Human alphaherpesvirus 1, GMK) was found to be 0.5.

For the compound `COc1ccccc1N1CCNCC1` [Compound 4, 1-(o-methoxyphenyl)piperazine hydrochlorate], in the data set on GMK cells (100 μg/ml), the cytotoxicities entry was “(+)”. In the data set on HSV-1 (Miyama strain) [1] (Human alphaherpesvirus 1, GMK), the log reduction at 10 µg/mL worked out at 0.56, the log reduction at 50 µg/mL amounted to 1.56 and the log reduction at 100 µg/mL stood at 2.5.

Consider `COc1ccccc1N1CCN(CCN)CC1` [Compound 9, 4-(aminoethyl)-1-(o-methoxyphenyl)piperazine], for which the log reduction at 10 µg/mL in the data set with HSV-1 (Miyama strain) [1] (setting [4]) came out at 0.87. In the data set on HSV-1 (Miyama strain) [1] (setting [5]), the log reduction at 50 µg/mL is 1.8. In addition, in the data set with HSV-1 (Miyama strain) [1] (Human alphaherpesvirus 1, 100 μg/ml, HSV-1 (Miyama strain), GMK cells), the log reduction at 100 µg/mL was found to be 2.53. Further, in the data set on HSV-1 (Miyama strain) [2] (setting [6]), the “Survival Ratios after 21 days (%)” value came to 70% and the “Mean Survival Days” value was 17.5* Days. In the data set with HSV-1 (Miyama strain) [2] (setting [7]), the “Survival Ratios after 21 days (%)” value is given as 50% and the “Mean Survival Days” value is given as 10.9* Days.

In the case of `Clc1cccc(N2CCNCC2)c1` [Compound 2, 1-(m-chlorophenyl)piperazine hydrochlorate], the cytotoxicities entry in the data set on GMK cells (100 μg/ml) was “(±±)”. Moreover, in the data set with HSV-1 (Miyama strain) [1] (Human alphaherpesvirus 1, GMK), the log reduction at 10 µg/mL is 0.46 and the log reduction at 50 µg/mL was found to be 1.23.

Turning to `Clc1cccc(Cl)c1N1CCNCC1` [Compound 12], the cytotoxicities entry in the data set on GMK cells (100 μg/ml) was “(±)”. Also, in the data set on HSV-1 (Miyama strain) [1] (Human alphaherpesvirus 1, GMK), the log reduction at 10 µg/mL was determined as 1, the log reduction at 50 µg/mL came to 2.67 and the log reduction at 100 µg/mL was greater than 3.3.

Turning to `Clc1ccc(N2CCNCC2)cc1` [Compound 3, 1-(p-chlorophenyl)piperazine hydrochlorate], the cytotoxicities result with GMK cells (100 μg/ml) is “(±±)”. Besides, in the data set on HSV-1 (Miyama strain) [1] (Human alphaherpesvirus 1, GMK), the log reduction at 10 µg/mL came out at 0 and the log reduction at 50 µg/mL came out at 1.5.

Turning to `c1ccc(N2CCNCC2)cc1` [Compound 7, 1-phenylpiperazine], the cytotoxicities entry in the data set on GMK cells (100 μg/ml) is recorded as “(+)”. Also, the log reduction at 100 µg/mL in the data set on HSV-1 (Miyama strain) [1] (Human alphaherpesvirus 1, GMK) was 0.83.

Regarding `FC(F)(F)c1ccccc1N1CCNCC1` [Compound 11], the cytotoxicities result in the data set with GMK cells (100 μg/ml) was “(±)”. Further, in the data set with HSV-1 (Miyama strain) [1] (Human alphaherpesvirus 1, GMK), the log reduction at 10 µg/mL was 2, the log reduction at 50 µg/mL was greater than 4 and the log reduction at 100 µg/mL is less than 4.

For the compound `Fc1ccccc1N1CCNCC1` [Compound 5, 1-(o-fluorophenyl)piperazine hydrochlorate], in the data set with GMK cells (100 μg/ml), the cytotoxicities entry was “(+)”. Besides, in the data set on HSV-1 (Miyama strain) [1] (Human alphaherpesvirus 1, GMK), the log reduction at 10 µg/mL worked out at 0.33, the log reduction at 50 µg/mL was 1.33 and the log reduction at 100 µg/mL was found to be 1.56.

Regarding `Fc1ccc(N2CCNCC2)cc1` [Compound 6, 1-(p-fluorophenyl)piperazine hydrochlorate], the cytotoxicities entry with GMK cells (100 μg/ml) is “(+)”. In the data set with HSV-1 (Miyama strain) [1] (Human alphaherpesvirus 1, GMK), the log reduction at 10 µg/mL was 0, the log reduction at 50 µg/mL amounted to 0.5 and the log reduction at 100 µg/mL came to 1.33.

As for `CC[C@]12CCCN3CCc4c(n(c5ccccc45)C(=NOCC(O)CN4CCN(c5ccccc5OC)CC4)C1)[C@@H]32` (stereo partly drawn) [Compound 10], the cytotoxicities entry in the data set on GMK cells (50 μg/ml) was “(±)”. In addition, the log reduction at 10 µg/mL in the data set with HSV-1 (Miyama strain) [1] (setting [4]) was greater than 3. Further, the log reduction at 50 µg/mL with HSV-1 (Miyama strain) [1] (setting [5]) is greater than 2.17. Moreover, the “Survival Ratios after 21 days (%)” value came to 50% in the data set with HSV-1 (Miyama strain) [3] (setting [6]), 60% with HSV-1 (Miyama strain) [3] (setting [8]), 50% in the data set on HSV-1 (Miyama strain) [3] (setting [7]) and 50% in the data set with HSV-1 (Miyama strain) [3] (setting [9]). Besides, the “Mean Survival Days” value in the data set on HSV-1 (Miyama strain) [3] (setting [6]) was 15.4* Days; in the data set on HSV-1 (Miyama strain) [3] (setting [8]), 15.4* Days; in the data set with HSV-1 (Miyama strain) [3] (setting [7]), 16.4* Days; in the data set on HSV-1 (Miyama strain) [3] (setting [9]), 15.5* Days.
